Measured values as given in US5688767A, “Treatment of endotoxin-associated disorders with cationic peptides” (priority 1996, dated 1997).
Values after ≈ are worked out from the molar mass of the structure shown.

Key:
[1] = test system: Acinetobacter calcoaceticus 8193; test: MIC against Gram-negative bacteria; assay type: cell-based
Excerpt: (§1) Bacteria included the Bort strain of E. coli (Bortolussi, et al., Inf. Immun., 25:293, 1979) that was originally derived from a case of neonatal meningitis, and which is therefore considered a relevant pathogenic strain to study, and the 0111:B4 strain of E. coli (kindly provided by Dr. D. Morrison) which is a standard source of endotoxin. (Kelly, et al., Inf. Immun., 59:4491, 1991). In addition, P. aeruginosa PA01 strain H103, P. aeruginosa M2, P. aeruginosa K799, Eschericha coli UB 1005, Enterobacter cloacae 218S, Salmonella typhimurium MS7953s, Klebsiella pneumoniae ATCC 13883, Xanthomonas maltophilia ATCC 13637, and Acinetobacter calcoacetious 8193 were employed. LPS was obtained from E. coli Bort by the technique of Westphal and Jann, (Westphal, et al., Acad. Press, Inc. NY., 5:83) and from P. aeruginosa H103 by the method of Darveau and Hancock, (Darveau, et al., J. Bacteriol, 155:831, […]). E. coli 0111:B4 LPS was purchased from Sigma.

[2] = test system: Klebsiella pneumoniae ATCC 13883; test: MIC against Gram-negative bacteria; assay type: cell-based
Excerpt: as §1

[3] = test system: Xanthomonas maltophilia ATCC 13637; test: MIC against Gram-negative bacteria; assay type: cell-based
Excerpt: as §1

P. AERUGINOSA H309 = test: microbe, parasite or virus in culture; assay type: cell-based, Pseudomonas aeruginosa
Method: Briefly, cells were grown overnight at 37° C. in LB-S (Luria broth without any salt supplement) and diluted one in 10,000 in the same medium to give concentrations of about 10^4 to 10^5 CFU/ml. The broth dilutions were set up in a 96 well microtiter plate by putting 200 μl of LB-S containing the initial concentration of antibiotic or compound in column 1 and 100 μl of the same medium in columns 2-12. The compounds were diluted by taking 100 μl of broth from column 1 and mixing it with column 2, resulting in a one in two dilution. This was continued to column 10. Finally, 10 μl of bacteria were pipetted into columns 1-11, and the plates incubated overnight at 37° C. The next day the plates were scored for growth in the wells, and the MIC determined.

[4] = test system: P. aeruginosa H309 or E. cloacae 218R1; assay type: cell-based, Pseudomonas aeruginosa; Enterobacter cloacae; settings: 10 μM NPN
Excerpt: The second assay determined membrane permeability by the ability of 1-N-phenylnaphthylamine(NPN), a small fluorescent probe, to insert itself into the membrane. Normally, very little NPN can penetrate the outer membrane, but in the presence of a membrane permeabilizer it can insert into the hydrophobic membrane resulting in an increase in fluorescence (FIGS. 7 and 8). This N-phenylnaphthylamine uptake assay was previously described by Loh, et al., Antimicrobial Agents and Chemo., 26:546, 1984. Cells were prepared exactly the same as for the lysozyme lysis assay. 1-N-phenylnaphthylamine(NPN) was dissolved in acetone at a concentration of 500 μM. NPN fluorescence was measured in a Perkin-Elmer 650-10S fluorescent spectrophotometer using excitation and emission wavelengths set to 350 nm and 420 nm respectively, with slit widths of 5 nm. The assay was standardized by adding 20 μl of NPN (final concentration of 10 μM) and 10 μl of 0.64 mg/ml of polymyxin B (final concentration of 6.4 μg/ml) into 1 ml of cells, and adjusting the resulting fluorescence to read 90% deflection (90 arbitrary units). Various compounds were tested by adding 10 μl of different concentrations to a cuvette containing 1 ml of cells and 10 μM NPN. Permeabilizing activity was designated as the total fluorescence minus the fluorescence due to NPN alone. Following the fluorescence measurement, the OD600 of the cells was taken to ensure no significant cell lysis had occurred.

RAW 264.7 cells = test: RAW cell viability by Trypan blue exclusion; assay type: cell-based, murine; settings: up to 50 μg
LPS-induced endotoxemia = test: Protection from lethal LPS endotoxicity in galactosamine-sensitized mouse endotoxic shock model; assay type: in vivo, mice; settings: for % Mortality / dead/total: LPS 10 ug
Method: The ability of CEME and CEMA to protect against LPS-induced endotoxemia was assessed in vivo. Mice (8-10 weeks old) were injected intraperitoneally with […] D-galactosamine (Dgal) to sensitize them to LPS according to the mode of Galanos (Galanos, et al., Proc. Natl. Acad. Sci., USA, 76:5939-5943, 1979), followed by 0, 50, 100, or 200 μg CEME or CEMA in 100 μl. Immediately afterwards LPS (10 or 20 μg) in 100 μl was injected.
Mice are naturally resistant to LPS. […] Endotoxic shock was induced by intraperitoneal injection of 10 or 20 μg of E. coli 0111:B4 LPS in phosphate-buffered saline (PBS), pH 7.2 into galactosamine-sensitized 8-10 week old female CD-1 mice (Galanos, C., supra; Freudenberg, M. A., Inf. Immun., 51:891, 1986). In experiments involving peptides, 50-200 μg in 100 μl sterile water injected at separate intraperitoneal sites immediately before or after LPS injection. In survival experiments, survival was monitored at 24 to 48 hours post injection. In experiments measuring TNF, blood was withdrawn by cardiac puncture at timed intervals up to 8 hours after the injections and allowed to clot prior to measurement of TNF in the serum.
In contrast when CEMA was injected at around the same time as LPS, but at separate site in the peritoneum, it protected mice in a dose dependant fashion (FIG. 17). Endotoxemia was induced with 10 μg of E. coli 0111:B4 LPS injected into the peritoneum. Subsequently 50, 100, or 200 μg (2.2, 4.4, and 8.7 mg/kg) of CEME or CEMA was injected into a separate site in the peritoneum. […] mice were assessed for each experimental point. Mortality was observed after 24 hrs.

[5] = Lethality of peptide alone in mice; assay type: in vivo

Row | Compound | MIC [1] [µg/mL] | MIC [2] [µg/mL] | MIC [3] [µg/mL] | MIC (P. AERUGINOSA H309; +5 mM Mg^++) [µg/mL] | MIC (P. AERUGINOSA H309; +80 mM Na^+) [µg/mL] | MIC (P. AERUGINOSA H309; No addition) [µg/mL] | activity in opening up the membrane to NPN [4] | RAW cell viability (RAW 264.7 cells) | survival (LPS-induced endotoxemia; 10 μg E. coli 0111:B4 LPS, peptide 50 μg) [%] | survival (LPS-induced endotoxemia; 10 μg E. coli 0111:B4 LPS, peptide 100 μg) [%] | survival / mice protected (LPS-induced endotoxemia; 10 μg E. coli 0111:B4 LPS, peptide 200 μg (8.7 mg/kg)) [%] | % Mortality (LPS-induced endotoxemia; peptide 50 ug) [%] | dead/total (LPS-induced endotoxemia; peptide 50 ug) | % Mortality (LPS-induced endotoxemia; peptide 100 ug) [%] | dead/total (LPS-induced endotoxemia; peptide 100 ug) | % Mortality (LPS-induced endotoxemia; peptide 200 ug) [%] | dead/total (LPS-induced endotoxemia; peptide 200 ug) | survival of mice given peptide alone ([5]; 200 μg (8.7 mg/kg) alone) | % Mortality ([5]; no LPS, peptide 200 ug) [%] | dead/total ([5]; no LPS, peptide 200 ug)
1 | CC[C@H](C)[C@H](NC(=O)CNC(=O)[C@@H](NC(=O)[C@H](CCCCN)NC(=O)[C@H](CCCCN)NC(=O)[C@H](Cc1ccccc1)NC(=O)[C@H](CC(C)C)NC(=O)[C@H](CCCCN)NC(=O)[C@H](Cc1c[nH]c2ccccc12)NC(=O)[C@@H](N)CCCCN)[C@@H](C)CC)C(=O)NCC(=O)N[C@@H](C)C(=O)N[C@H](C(=O)N[C@@H](CC(C)C)C(=O)N[C@@H](CCCCN)C(=O)N[C@H](C(=O)N[C@@H](CC(C)C)C(=O)N[C@H](C(=O)N[C@H](C(=O)NCC(=O)N[C@@H](CC(C)C)C(=O)N1CCC[C@H]1C(=O)N[C@@H](C)C(=O)N[C@@H](CC(C)C)C(=O)N[C@@H](CCCCN)C(=O)N[C@@H](CC(C)C)C(=O)N[C@H](C(=O)N[C@@H](CCCCN)C(=O)O)[C@@H](C)O)[C@@H](C)O)[C@@H](C)O)C(C)C)C(C)C [CEMA] | 1 (≈ 0.326 µM) | 12 (≈ 3.91 µM) | 12 (≈ 3.91 µM) | 22.4 (≈ 7.31 µM) | 5.6 (≈ 1.83 µM) | 2.8 (≈ 0.913 µM) | equally active | no apparent decrease | 60 | 75 | 78 | 40 | 2/5 | 25 | 2/8 | 22 | 2/9 | survived | 0 | 0/5
2 | polymyxin B |  |  |  | 1 | 0.5 | 0.5 | equally active |  |  |  |  |  |  |  |  |  |  |  |  | 
